According to patent publication US20230330093A1, “APPLICATION OF NITROGEN-CONTAINING SATURATED HETEROCYCLIC COMPOUND” (SHANGHAI PHARMACEUTICALS HOLDING CO., LTD., priority 2020, published 2023):

Assays:
[1] = test system: cynomolgus monkeys; assay: 4-week safety study: routine ECG analysis; format: in vivo; settings: for QTc / HR / QRS / QT: Male
Procedure: Routine ECG analysis was performed at each scheduled time (day 1 after administration, d01 and d02 after administration, 1 and 24 h after administration on day 1, before administration, and 1 and 24 h after administration on day 26 and day 56). P-wave, R-wave, T-wave, P-R intervals, Q-T intervals, QRS duration and heart rate were recorded by an ECG system using derivation DII (ECG-6951E, Shanghai, China).

[2] = 4-week safety study: toxicokinetics (plasma AUC0-24h, Cmax); format: in vivo, cynomolgus monkeys
Procedure: Blood samples were obtained on day1 and day26 at 0, 0.5, 1.5, 3, 5, 7 and 24 h after administration. On each occasion, approximately 1.0 mL of blood was drawn from the vein and collected into EDTA-K2 anticoagulant tubes. The blood samples were put on ice and then centrifuged (3500 rpm, 5 min) at 4° C. to obtain plasma samples, which were kept frozen at about −80° C. until analysis. Toxicokinetics determination of the compound of Formula I was conducted at the Institute of Materia Medica, Chinese Academy of Sciences (Shanghai, China).

COC(=O)NCCCn1nc([C@@H](C)N(C(=O)[C@H]2CNCCO2)C2CC2)c2ccc(C)nc21 [compound of Formula I]
QTc ([1]; 20 mg/kg, 1 h (d 1)): 241.4 ± 12.3 ms
HR ([1]; 20 mg/kg, 1 h (d 26)): 260.0 ± 12.4 bmp
QRS ([1]; 20 mg/kg, 1 h (d 26)): 36.0 ± 5.5 ms
QT ([1]; 20 mg/kg, 1 h (d 26)): 146.0 ± 11.4 ms
QTc ([1]; 20 mg/kg, 1 h (d 26)): 237.8 ± 16.3 ms
HR ([1]; 20 mg/kg, 24 h (d 1)): 206.1 ± 20.7 bmp
QRS ([1]; 20 mg/kg, 24 h (d 1)): 28.0 ± 4.5 ms
QT ([1]; 20 mg/kg, 24 h (d 1)): 166.0 ± 8.9 ms
QTc ([1]; 20 mg/kg, 24 h (d 1)): 250.0 ± 10.4 ms
HR ([1]; 20 mg/kg, 24 h (d 26)): 264.9 ± 16.1 bmp
QRS ([1]; 20 mg/kg, 24 h (d 26)): 34.0 ± 5.5 ms
QT ([1]; 20 mg/kg, 24 h (d 26)): 146.0 ± 11.4 ms
QTc ([1]; 20 mg/kg, 24 h (d 26)): 239.2 ± 14.8 ms
HR ([1]; 20 mg/kg, d0): 198.4 ± 16.5 bmp
QRS ([1]; 20 mg/kg, d0): 34.0 ± 8.9 ms
QT ([1]; 20 mg/kg, d0): 164.0 ± 11.4 ms
QTc ([1]; 20 mg/kg, d0): 243.9 ± 11.7 ms
HR ([1]; 20 mg/kg, d 56): 225.6 ± 2.4 bmp
QRS ([1]; 20 mg/kg, d 56): 30.0 ± 0.0 ms
QT ([1]; 20 mg/kg, d 56): 145.0 ± 7.1 ms
QTc ([1]; 20 mg/kg, d 56): 225.4 ± 10.2 ms
HR ([1]; 100 mg/kg, 1 h (d 1)): 230.0 ± 19.9 bmp
QRS ([1]; 100 mg/kg, 1 h (d 1)): 38.0 ± 4.5 ms
QT ([1]; 100 mg/kg, 1 h (d 1)): 156.0 ± 11.4 ms
QTc ([1]; 100 mg/kg, 1 h (d 1)): 243.8 ± 16.5 ms
HR ([1]; 100 mg/kg, 1 h (d 26)): 256.9 ± 16.7 bmp
QRS ([1]; 100 mg/kg, 1 h (d 26)): 36.0 ± 5.5 ms
QT ([1]; 100 mg/kg, 1 h (d 26)): 144.0 ± 5.5 ms
QTc ([1]; 100 mg/kg, 1 h (d 26)): 233.8 ± 12.2 ms
HR ([1]; 100 mg/kg, 24 h (d 1)): 208.2 ± 10.4 bmp
QRS ([1]; 100 mg/kg, 24 h (d 1)): 36.0 ± 8.9 ms
QT ([1]; 100 mg/kg, 24 h (d 1)): 162.0 ± 11.0 ms
QTc ([1]; 100 mg/kg, 24 h (d 1)): 245.3 ± 18.6 ms
HR ([1]; 100 mg/kg, 24 h (d 26)): 260.7 ± 9.1 bmp
QRS ([1]; 100 mg/kg, 24 h (d 26)): 36.0 ± 5.5 ms
QT ([1]; 100 mg/kg, 24 h (d 26)): 144.0 ± 8.9 ms
QTc ([1]; 100 mg/kg, 24 h (d 26)): 234.9 ± 13.9 ms
HR ([1]; 100 mg/kg, d0): 215.4 ± 11.2 bmp
QRS ([1]; 100 mg/kg, d0): 32.0 ± 8.4 ms
QT ([1]; 100 mg/kg, d0): 154.0 ± 16.7 ms
QTc ([1]; 100 mg/kg, d0): 235.6 ± 24.5 ms
HR ([1]; 100 mg/kg, d 56): 225.6 ± 2.4 bmp
QRS ([1]; 100 mg/kg, d 56): 35.0 ± 7.1 ms
QT ([1]; 100 mg/kg, d 56): 165.0 ± 7.1 ms
QTc ([1]; 100 mg/kg, d 56): 256.6 ± 11.9 ms
HR ([1]; 450 mg/kg, 1 h (d 1)): 217.4 ± 3.2 bmp
QRS ([1]; 450 mg/kg, 1 h (d 1)): 36.7 ± 5.8 ms
QT ([1]; 450 mg/kg, 1 h (d 1)): 170.0 ± 10.0 ms
QTc ([1]; 450 mg/kg, 1 h (d 1)): 261.1 ± 16.0 ms
HR ([1]; 450 mg/kg, 1 h (d 26)): 247.6 ± 22.6 bmp
QRS ([1]; 450 mg/kg, 1 h (d 26)): 36.0 ± 13.4 ms
QT ([1]; 450 mg/kg, 1 h (d 26)): 150.0 ± 17.3 ms
QTc ([1]; 450 mg/kg, 1 h (d 26)): 240.0 ± 23.7 ms
HR ([1]; 450 mg/kg, 24 h (d 1)): 211.0 ± 15.9 bmp
QRS ([1]; 450 mg/kg, 24 h (d 1)): 32.0 ± 4.5 ms
QT ([1]; 450 mg/kg, 24 h (d 1)): 166.0 ± 8.9 ms
QTc ([1]; 450 mg/kg, 24 h (d 1)): 252.1 ± 9.4 ms
HR ([1]; 450 mg/kg, 24 h (d 26)): 210.4 ± 49.9 bmp
QRS ([1]; 450 mg/kg, 24 h (d 26)): 38.0 ± 4.5 ms
QT ([1]; 450 mg/kg, 24 h (d 26)): 158.0 ± 13.0 ms
QTc ([1]; 450 mg/kg, 24 h (d 26)): 237.7 ± 12.2 ms
HR ([1]; 450 mg/kg, d0): 214.3 ± 17.7 bmp
QRS ([1]; 450 mg/kg, d0): 34.0 ± 5.5 ms
QT ([1]; 450 mg/kg, d0): 156.0 ± 5.5 ms
QTc ([1]; 450 mg/kg, d0): 238.2 ± 7.2 ms
HR ([1]; 450 mg/kg, d 56): 203.3 ± 15.5 bmp
QRS ([1]; 450 mg/kg, d 56): 35.0 ± 7.1 ms
QT ([1]; 450 mg/kg, d 56): 160.0 ± 0.0 ms
QTc ([1]; 450 mg/kg, d 56): 240.2 ± 6.1 ms
QRS intervals ([1]; high-dose females, 1 h after administration on d1 and d26): Prolonged
QRS intervals ([1]; one high-dose male (animal No. 411), 1 h after administration on d26, prolonged): 60 ms
Sinus arrhythmia ([1]; one high-dose male, 1 h after administration on d26): Sinus arrhythmia was observed in one high-dose male
QTc intervals ([1]; one mid-dose female (animal No. 303), 1 h after administration on d26, prolonged): 296 ms
accumulation ([2]; after consecutive 28 days of administration): the accumulation was not apparent
Systemic exposure (plasma AUC0-24h and Cmax of parent compound and main metabolite) vs dose ([2]; dose range of 20 to 450 mg/kg): proportionately greater than the magnitude of the dose increments
